The target in the assay is T1, recombinant hAChE (Homo sapiens, UniProt P22303).
T1 construct: made in house
Kind of assay: biochemical. The text has this: A chemical library consisting of 17 500 substances was screened using the colorimetric Ellman assay and recombinant hAChE. The hydrolysis of acetylthiocholine iodide was monitored and the average slope of the positive controls was set to 100% activity. […] Molecules in Set 1 were selected to represent the chemical space according to a Principal Component Analysis (PCA) of the hits' structural and physicochemical features (see section Chemical space of AChE inhibitors, below).
The screening was performed at the Umeå Small Molecule Screening Facility currently incorporated in the screening platform of the Laboratories for Chemical Biology, Umeå (LCBU). Recombinant hAChE was expressed and purified according to previously described methods, [46]. The enzymatic activity was measured using the Ellman assay adapted to a 96-well format. The final assay volume was 200 µL and all measurements were performed in 0.2 mM 5,5′-Dithiobis(2-nitrobenzoic acid) and 1 mM acethylthiocholine iodide in 0.1 M phosphate buffer pH 8.0. […] Stock solutions were prepared in DMSO and transferred to the assay plate using a Biomek NC robotic system (BeckanCoulter). The enzymatic reaction was monitored for 120 seconds using an Infinite M200 plate-reader (Tekan) at a ligand concentration of 50 µM and temperature of 20°C. Each plate contained 80 samples, 14 positive controls and two negative controls. […] Substances reducing the activity by at least 70% were scored as hits. […] For each inhibitor, the enzymatic activity was determined at eight concentrations selected to produce a dose-response curve that was subsequently analyzed using Prism.

Setting [1] is: hits with determined crystal structures, mean ± standard deviation of 2–5 determinations, read-out: IC50.

Structures are written as SMILES. Read-outs that look alike come from different tables or passages of the source.

The text below walks through data of article PMC3227566, “Targeting Acetylcholinesterase: Identification of Chemical Leads by High Throughput Screening, Structure Determination and Molecular Modeling” (PLoS ONE, 2011).

T1 sequence (P22303 32-614): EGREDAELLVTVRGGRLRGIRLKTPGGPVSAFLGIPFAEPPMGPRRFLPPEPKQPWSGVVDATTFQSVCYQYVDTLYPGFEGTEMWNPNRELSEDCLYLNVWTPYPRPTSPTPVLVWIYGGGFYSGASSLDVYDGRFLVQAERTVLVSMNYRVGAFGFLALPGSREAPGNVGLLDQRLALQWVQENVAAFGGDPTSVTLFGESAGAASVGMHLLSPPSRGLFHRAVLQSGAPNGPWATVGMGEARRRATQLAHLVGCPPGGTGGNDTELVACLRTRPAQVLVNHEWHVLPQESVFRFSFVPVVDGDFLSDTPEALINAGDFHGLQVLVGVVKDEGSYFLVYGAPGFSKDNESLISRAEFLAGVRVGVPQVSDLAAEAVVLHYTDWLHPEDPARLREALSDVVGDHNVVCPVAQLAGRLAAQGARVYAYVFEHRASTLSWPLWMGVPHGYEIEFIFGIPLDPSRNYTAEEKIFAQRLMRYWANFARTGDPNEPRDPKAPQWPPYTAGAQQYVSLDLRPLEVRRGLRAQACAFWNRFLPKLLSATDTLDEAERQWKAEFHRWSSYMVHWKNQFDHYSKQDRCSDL

For `COC(=O)CSc1nc(C)c(C)c(C)c1C#N` [Compound C5231], the IC50 under setting [1] worked out at 36 ± 6.3 µM.

Regarding `CCN1CCCC1CNC(=O)c1cc([N+](=O)[O-])c(N(C)C)cc1OC` (centres unmarked) [Compound C5685], the IC50 was determined as 1.3 ± 0.1 µM. Take `CCN(CC)CCCNc1c([N+](=O)[O-])c(=O)n(C)c2ccccc12` [Compound C6905]: the IC50 under setting [1] was 2 ± 0.1 µM. For the compound `CCN(CC)CCCNc1oc(-c2ccc(Cl)cc2)nc1C#N` [Compound C7491], under setting [1], the IC50 amounted to 21.4 ± 1.7 µM. The same measure, in the same setting: the same measure for `COc1ccc(C(=O)NC(=S)Nc2ccc(N3CCN(C)CC3)cc2)cc1[N+](=O)[O-]` [Compound C7643]: 0.54 ± 0.03 µM.

Broadly, the IC50 is the concentration that inhibits the measured activity by half.
